Consider 21 compounds from patent publication US9908897B2, “Spirocyclic derivatives” (CHRONOS THERAPEUTICS LIMITED, priority 2014, dated 2018).

Molecules are shown by their SMILES.

Assay [1] concerns the target human norepinephrine transporter (NET) (Homo sapiens (Human), UniProt P23975). The experiment in a line: Scintillation Proximity Assay (SPA) competition binding, human NET. The note with it: recombinant hNET-CHO membranes, [3H]nisoxetine. From the text: (§1) Measure of Affinity to the Human Transporters DAT, NET and SERT
(§2) Affinity is expressed in terms of inhibition constant (Ki) of the compounds of the invention for DAT, NET and SERT, and it is typically calculated from the IC50 values obtained in competition experiments using Cheng and Prusoff equation (Cheng and Prusoff, Biochem. Pharmacol. 22:3099, 1973). In the context of the present invention pKi values (corresponding to the antilogarithm of Ki) are used instead of Ki; pKi are only estimated to be accurate to about 0.3 log unit.
(§3) Scintillation Proximity Assay (SPA) for Human DAT, NET and SERT Binding
(§4) Chinese Hamster Ovary (CHO) cells stably expressing either human DAT (hDAT-CHO) or human NET (hNET-CHO) or human SERT (hSERT-CHO) are used for the membrane preparations for radioligand binding assays using Scintillation proximity Assay (SPA) technique. Each cell line is cultured independently in F-12K Nutrient Mixture containing 10% of Fetal Bovine Serum (FBS) supplemented with 450 μg/ml G-418. When cells are at 70-80% of confluence 3 mM Na Butyrate was added to the cell culture medium. After 24 h of incubation, the culture medium was removed and the cells detached with Versene (DAT) or by scraping (NET and SERT). Cell suspension is centrifuged at 41,000 g for 10 minutes at 4° C. The resultant pellets are re-suspended in 15 volumes of Ice-cold buffer (20 mM HEPES, 145 mM NaCl, 5 mM KCl, pH7.3), homogenized using an Ultra Turrax homogeniser and centrifuged as before. The resultant membrane pellets are re-suspended in up to 15 volume of ice-cold buffer, incubated for 20 minutes at 37-C and centrifuged as before at 41,000 g. The final membrane pellets are re-suspended into 5-10 volumes of ice-cold buffer, dispensed into 0.5 ml aliquots and stored at −80° C. until use. Protein concentration for each preparation is determined using Bio-Rad Protein Assay kit.
(§5) The affinity of the compounds of the invention to the human DAT or NET or SERT transporters is assessed by using the [^3H]WIN-35,428 or [^3H]nisoxetine or [^3H]citalopram binding assays in recombinant human DAT, NET and SERT membranes with the SPA technology. The final assay volume is 50 μL in 384 well plates.
(§6) Briefly, 0.5 μL of test compound in neat DMSO or 0.5 μL of DMSO for total binding (TB) or 0.5 μL of indatraline 1 mM (10 μM final concentration) for non specific binding (NSB) are added to the assay plate. 50 μL of the SPA mixture is added to each well, containing: 30 μg/mL or 10 μg/mL or 25 μg/mL DAT, NET, SERT membranes, respectively; 5 nM [^3H]WIN-35,428 or 5 nM [^3H]nisoxetine or 1 nM [^3H]citalopram, for DAT, NET, SERT assay, respectively; 2.5 mg/mL or 1 mg/mL or 4 mg/mL WGA-PVT SPA beads (PerkinElmer RPNQ0001, for DAT, NET, SERT assay, respectively. All components are added to Assay Buffer (20 mM HEPES pH 7.4, 145 mM NaCl, 5 mM KCl, 0.01% Pluronic F-127). 0.02% BSA was used for DAT binding only. Plates are sealed with Topseal A and centrifuged 1 min, 800 rpm. Plates are loaded into a 1450 Microbeta TriLux (Perkin-Elmer) plate reader and the radioactivity counted after at least 4 hrs or overnight incubation at room temperature. Curve fitting and IC50 estimations are performed using a four parameter model in XLfit (IDBS, Guilford, UK) for Microdoft Excel (Microsoft, Redmond, Wash.).
Background: SPA uses beads or plates that emit light when radiolabelled molecules are held near them.

The target in assay [2] is human serotonin transporter (SERT) (Homo sapiens (Human), UniProt P31645). Briefly: Scintillation Proximity Assay (SPA) competition binding, human SERT. The following applies: recombinant hSERT-CHO membranes, [3H]citalopram.
Source text: as §1, §2, §3, §4, §5, §6

Assay [3] deals with human dopamine transporter (DAT) (Homo sapiens (Human), UniProt Q01959). The experiment in a line: Scintillation Proximity Assay (SPA) competition binding, human DAT. The note with it: recombinant hDAT-CHO membranes, [3H]WIN-35,428.
Source text: as §1
In the context of the present invention pKi values (corresponding to the antilogarithm of Ki) are used instead of Ki; pKi are only estimated to be accurate to about 0.3 log unit.
as §3, §4, §5, §6

human serotonin transporter (SERT), sequence (P31645 whole entry): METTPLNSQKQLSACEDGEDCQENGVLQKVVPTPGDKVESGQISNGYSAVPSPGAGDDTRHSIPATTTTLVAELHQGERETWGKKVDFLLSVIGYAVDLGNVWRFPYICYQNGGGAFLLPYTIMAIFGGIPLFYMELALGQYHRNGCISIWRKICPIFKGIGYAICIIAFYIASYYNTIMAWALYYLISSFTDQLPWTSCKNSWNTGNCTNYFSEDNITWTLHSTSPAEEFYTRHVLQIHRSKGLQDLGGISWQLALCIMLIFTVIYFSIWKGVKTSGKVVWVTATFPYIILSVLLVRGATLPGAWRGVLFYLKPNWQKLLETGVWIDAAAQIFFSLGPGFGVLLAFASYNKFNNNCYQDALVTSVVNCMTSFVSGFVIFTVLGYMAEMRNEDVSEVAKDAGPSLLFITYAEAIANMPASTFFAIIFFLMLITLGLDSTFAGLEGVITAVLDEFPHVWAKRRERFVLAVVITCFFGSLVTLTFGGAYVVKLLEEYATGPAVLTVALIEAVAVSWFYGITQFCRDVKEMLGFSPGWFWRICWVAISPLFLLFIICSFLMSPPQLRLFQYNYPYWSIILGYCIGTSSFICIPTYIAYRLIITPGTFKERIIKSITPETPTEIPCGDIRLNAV
human norepinephrine transporter (NET), sequence (P23975 whole entry): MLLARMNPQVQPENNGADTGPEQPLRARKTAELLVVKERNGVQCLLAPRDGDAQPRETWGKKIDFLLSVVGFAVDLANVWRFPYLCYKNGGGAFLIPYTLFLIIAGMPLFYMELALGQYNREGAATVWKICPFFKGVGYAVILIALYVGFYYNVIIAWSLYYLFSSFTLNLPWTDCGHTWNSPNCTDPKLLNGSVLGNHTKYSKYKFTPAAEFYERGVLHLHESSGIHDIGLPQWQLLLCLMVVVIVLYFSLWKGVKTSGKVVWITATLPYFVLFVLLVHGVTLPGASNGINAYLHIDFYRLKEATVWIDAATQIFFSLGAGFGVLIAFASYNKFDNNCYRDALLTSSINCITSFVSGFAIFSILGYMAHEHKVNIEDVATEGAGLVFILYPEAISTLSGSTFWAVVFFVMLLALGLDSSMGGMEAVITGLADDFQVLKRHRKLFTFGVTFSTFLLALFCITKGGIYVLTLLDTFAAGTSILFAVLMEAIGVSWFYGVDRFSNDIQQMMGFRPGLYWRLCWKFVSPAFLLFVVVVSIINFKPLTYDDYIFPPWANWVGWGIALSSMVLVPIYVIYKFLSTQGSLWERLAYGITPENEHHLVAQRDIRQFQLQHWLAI
human dopamine transporter (DAT), sequence (Q01959 whole entry): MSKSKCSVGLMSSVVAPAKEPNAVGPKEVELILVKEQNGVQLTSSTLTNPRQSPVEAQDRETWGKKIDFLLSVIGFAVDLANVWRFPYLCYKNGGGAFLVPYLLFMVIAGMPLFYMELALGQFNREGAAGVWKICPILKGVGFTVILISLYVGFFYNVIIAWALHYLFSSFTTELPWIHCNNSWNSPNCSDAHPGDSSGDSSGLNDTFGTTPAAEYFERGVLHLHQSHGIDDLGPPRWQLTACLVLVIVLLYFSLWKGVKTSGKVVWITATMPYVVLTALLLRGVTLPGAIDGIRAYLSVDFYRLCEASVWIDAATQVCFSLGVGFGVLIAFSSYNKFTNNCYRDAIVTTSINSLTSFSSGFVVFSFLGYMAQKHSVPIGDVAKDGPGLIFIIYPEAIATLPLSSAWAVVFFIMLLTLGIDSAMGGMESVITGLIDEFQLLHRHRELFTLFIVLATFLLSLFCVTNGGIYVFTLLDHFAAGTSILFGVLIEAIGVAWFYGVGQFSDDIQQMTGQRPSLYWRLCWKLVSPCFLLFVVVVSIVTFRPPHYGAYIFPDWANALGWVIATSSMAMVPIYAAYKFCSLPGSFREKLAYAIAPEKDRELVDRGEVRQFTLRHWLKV

`O[C@H]1CNCC[C@@]12CCN(c1nc(Oc3cccc(F)c3)cc(C(F)(F)F)n1)C2` (single isomer, unassigned) [Example 98, 2-[4-(3-fluorophenoxy)-6-(trifluoromethyl)pyrimidin-2-yl]-2,8-diazaspiro[4.5]decan-6-ol]: the 50% inhibitory concentration (IC50) (as a rule, the concentration needed to halve the response being measured) is 0.437 µM in assay [1] and 11.2 µM in assay [2].
In the same order, the values of `O[C@H]1CNCC[C@@]12CCN(c1nc(Oc3cccc(F)c3)cc(C(F)(F)F)n1)C2` (single isomer, unassigned) [Example 99, 2-[4-(3-fluorophenoxy)-6-(trifluoromethyl)pyrimidin-2-yl]-2,8-diazaspiro[4.5]decan-6-ol] are 0.245 µM and 11.2 µM.
In the same order, the values of `O[C@H]1CNCC[C@@]12CCN(c1nc(Oc3cccc(F)c3)cc(C(F)(F)F)n1)C2` (single isomer, unassigned) [Example 100, 2-[4-(3-fluorophenoxy)-6-(trifluoromethyl)pyrimidin-2-yl]-2,8-diazaspiro[4.5]decan-6-ol] are 0.398 µM and 6.92 µM.
In the case of `O[C@H]1CNCC[C@@]12CCN(c1nc(Oc3cccc(F)c3)cc(C(F)(F)F)n1)C2` (single isomer, unassigned) [Example 101, 2-[4-(3-fluorophenoxy)-6-(trifluoromethyl)pyrimidin-2-yl]-2,8-diazaspiro[4.5]decan-6-ol], the IC50 in assay [1] was 0.263 µM; in assay [2], 11.2 µM.
Take `Cl.Fc1cccc(Oc2cc(F)c(F)cc2N2CCC3(CC2)CNCCO3)c1` [Example 2, 9-[4,5-difluoro-2-(3-fluorophenoxy)phenyl]-1-oxa-4,9-diazaspiro[5.5]undecane hydrochloride]: the “pIC50 NET” value in assay [1] stood at 6.03. In addition, in assay [2], the “pIC50 SERT” value stood at 6.49. Also, in assay [3], the “pIC50 DAT” value was determined as 8.14.
With `c1ccc(Oc2ccccc2N2CCC3(CC2)CNCCO3)cc1` [Example 3, 9-(2-phenoxyphenyl)-1-oxa-4,9-diazaspiro[5.5]undecane], the “pIC50 NET” value in assay [1] was 5.28. Besides, the “pIC50 SERT” value in assay [2] was 5.02. Also, the “pIC50 DAT” value in assay [3] is on record as 6.09.
In the same order, the values of `c1ccc(Oc2cccc(N3CCC4(CC3)CNCCO4)c2)cc1` [Example 6, 9-(3-phenoxyphenyl)-1-oxa-4,9-diazaspiro[5.5]undecane] are 5.83, 6.12 and 7.41.
Consider `Cl.Fc1cccc(Oc2cc(F)cc(N3CCC4(CC3)CNCCO4)c2)c1` [Example 9, 9-[3-fluoro-5-(3-fluorophenoxy)phenyl]-1-oxa-4,9-diazaspiro[5.5]undecane hydrochloride], for which the “pIC50 NET” value in assay [1] was 6.91. In addition, the “pIC50 SERT” value in assay [2] is recorded as 7.00. Also, in assay [3], the “pIC50 DAT” value stood at 8.38.
For `Fc1cccc(Oc2cc(N3CCC4(CC3)CNCCO4)c(F)cc2F)c1` [Example 12, 9-[2,4-difluoro-5-(3-fluorophenoxy)phenyl]-1-oxa-4,9-diazaspiro[5.5]undecane], the “pIC50 NET” value in assay [1] is 5.75. In assay [2], the “pIC50 SERT” value came out at 5.97. Further, in assay [3], the “pIC50 DAT” value is reported as 6.78.
Regarding `Fc1cccc(Oc2cc(N3CCC4(CC3)CNCCO4)cc(F)c2F)c1` [Example 15, 9-[3,4-difluoro-5-(3-fluorophenoxy)phenyl]-1-oxa-4,9-diazaspiro[5.5]undecane], in assay [1], the “pIC50 NET” value came out at 6.02. In addition, the “pIC50 SERT” value in assay [2] worked out at 7.03. Moreover, the “pIC50 DAT” value in assay [3] is reported as 7.05.
In the same order, the values of `Fc1cccc(Oc2ccc(F)c(N3CCC4(CC3)CNCCO4)c2F)c1` [Example 23, 9-[2,6-difluoro-3-(3-fluorophenoxy)phenyl]-1-oxa-4,9-diazaspiro[5.5]undecane] are 6.91, 6.16 and 8.32.
Consider `N#Cc1ccc(Oc2ccccc2)cc1N1CCC2(CC1)CNCCO2` [Example 27, 2-{1-oxa-4,9-diazaspiro[5.5]undecan-9-yl}-4-phenoxybenzonitrile], for which, in assay [1], the “pIC50 NET” value was 5.69. Besides, in assay [2], the “pIC50 SERT” value worked out at 5.15. Also, the “pIC50 DAT” value in assay [3] was 7.54.
Turning to `Cc1ccc(Oc2ccccc2)cc1N1CCC2(CC1)CNCCO2` [Example 29, 9-(2-methyl-5-phenoxyphenyl)-1-oxa-4,9-diazaspiro[5.5]undecane], the “pIC50 NET” value in assay [1] was 6.01. Also, in assay [2], the “pIC50 SERT” value was 5.80. Moreover, in assay [3], the “pIC50 DAT” value was 7.44.
With `Fc1cccc(Oc2cncc(N3CCC4(CC3)CNCCO4)c2)c1` [Example 31, 9-[5-(3-fluorophenoxy)pyridin-3-yl]-1-oxa-4,9-diazaspiro[5.5]undecane], the “pIC50 NET” value in assay [1] is reported as 5.96. Besides, the “pIC50 SERT” value in assay [2] is on record as 5.71. In assay [3], the “pIC50 DAT” value is given as 7.43.
For `c1ccc(Cc2cccc(N3CCC4(CC3)CNCCO4)c2)cc1` [Example 33, 9-(3-benzylphenyl)-1-oxa-4,9-diazaspiro[5.5]undecane], in assay [1], the “pIC50 NET” value is listed as 5.54. The “pIC50 SERT” value in assay [2] was found to be 5.73. Further, the “pIC50 DAT” value in assay [3] was 6.42.
Consider `Cc1c(C#N)cc(N2CCC3(CC2)CNCCO3)cc1Oc1cccc(F)c1.Cl` [Example 35, 3-(3-fluorophenoxy)-2-methyl-5-{1-oxa-4,9-diazaspiro[5.5]undecan-9-yl}benzonitrile hydrochloride], for which the “pIC50 NET” value in assay [1] is given as 6.52. Further, the “pIC50 SERT” value in assay [2] worked out at 8.45. The “pIC50 DAT” value in assay [3] was 8.16.
As to `Cl.Fc1cccc(Oc2cccc(N3CCC4(CC3)CNCCO4)n2)c1` [Example 36, 9-[6-(3-fluorophenoxy)pyridin-2-yl]-1-oxa-4,9-diazaspiro[5.5]undecane hydrochloride], the “pIC50 NET” value in assay [1] is 5.73. Further, in assay [2], the “pIC50 SERT” value is 5.66. The “pIC50 DAT” value in assay [3] is on record as 7.37.
In the same order, the values of `Cl.N#Cc1cc(Oc2cccc(F)c2)nc(N2CCC3(CC2)CNCCO3)c1` [Example 38, 2-(3-fluorophenoxy)-6-{1-oxa-4,9-diazaspiro[5.5]undecan-9-yl}pyridine-4-carbonitrile hydrochloride] are 6.75, 7.27 and 8.61.
In the same order, the values of `Cl.N#Cc1c(C(F)(F)F)cc(N2CCC3(CC2)CNCCO3)nc1Oc1cccc(F)c1` [Example 39, 2-(3-fluorophenoxy)-6-{1-oxa-4,9-diazaspiro[5.5]undecan-9-yl}-4-(trifluoromethyl)pyridine-3-carbonitrile hydrochloride] are 5.78, 4.50 and 6.68.
For `OC1CNCCC12CCN(c1nc(Oc3cccc(F)c3)cc(C(F)(F)F)n1)C2` (stereo not drawn) [Example 96, 2-[4-(3-fluorophenoxy)-6-(trifluoromethyl)pyrimidin-2-yl]-2,8-diazaspiro[4.5]decan-6-ol], in assay [1], the “pIC50 NET” value was 6.62. Also, the “pIC50 SERT” value in assay [2] is 5.25.
For the compound `OC1CNCCC12CCN(c1nc(Oc3cccc(F)c3)cc(C(F)(F)F)n1)C2` (stereo not drawn) [Example 97, 2-[4-(3-fluorophenoxy)-6-(trifluoromethyl)pyrimidin-2-yl]-2,8-diazaspiro[4.5]decan-6-ol], the “pIC50 NET” value in assay [1] is on record as 6.62. Besides, the “pIC50 SERT” value in assay [2] was determined as 5.34.
